According to PubChem BioAssay AID248 (DTP/NCI, 2004):
Several values for one entry are separate records, joined by “and”; a condition that tells them apart may be missing. Identical values can stand only once. Toxic doses and inconclusive results are not listed. Rule as the data show it: active = T/C of 150% or more; inactive = T/C below 125%.

System: L1210 leukemia ip in BDF1 mice, survival T/C
Assay: NCI In Vivo Anticancer Drug Screen. Data for tumor model L1210 Leukemia (intraperitoneal) in B6D2F1 (BDF1) mice
Settings: endpoint: mean survival time, higher = longer survival
In short: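 Transplantable tumor model; survival measured in treated vs vehicle control mice. Value = treated/control.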

[1] = dose: 100.0 mg/kg/injection, schedule: Q04DX002 (ip), vehicle: saline
[2] = dose: 50.0 mg/kg/injection, schedule: Q01DX009 (ip), vehicle: saline
[3] = dose: 100.0 mg/kg/injection, schedule: Q01DX009 (ip), vehicle: saline
[4] = dose: 100.0 mg/kg/injection, schedule: Q04DX003 (ip), vehicle: saline
[5] = dose: 200.0 mg/kg/injection, schedule: Q04DX003 (ip), vehicle: saline
[6] = dose: 400.0 mg/kg/injection, schedule: Q01DX009 (ip), vehicle: saline
[7] = dose: 400.0 mg/kg/injection, schedule: Q04DX003 (ip), vehicle: saline
[8] = dose: 100.0 mg/kg/injection, schedule: Q01DX001 (ip), vehicle: saline
[9] = dose: 200.0 mg/kg/injection, schedule: Q01DX001 (ip), vehicle: saline
[10] = dose: 400.0 mg/kg/injection, schedule: Q01DX001 (ip), vehicle: saline
[11] = dose: 100.0 mg/kg/injection, schedule: Q04DX002 (ip), vehicle: Klucel (hydroxypropylcellulose) (HPC)
[12] = dose: 200.0 mg/kg/injection, schedule: Q04DX002 (ip), vehicle: Klucel (hydroxypropylcellulose) (HPC)
[13] = dose: 400.0 mg/kg/injection, schedule: Q04DX002 (ip), vehicle: Klucel (hydroxypropylcellulose) (HPC)
[14] = dose: 100.0 mg/kg/injection, schedule: Q01DX009 (ip), vehicle: Klucel (hydroxypropylcellulose) (HPC)
[15] = dose: 200.0 mg/kg/injection, schedule: Q01DX009 (ip), vehicle: Klucel (hydroxypropylcellulose) (HPC)
[16] = dose: 400.0 mg/kg/injection, schedule: Q01DX009 (ip), vehicle: Klucel (hydroxypropylcellulose) (HPC)
[17] = dose: 100.0 mg/kg/injection, schedule: Q01DX001 (ip), vehicle: saline with Tween-80
[18] = dose: 200.0 mg/kg/injection, schedule: Q01DX001 (ip), vehicle: saline with Tween-80
[19] = dose: 400.0 mg/kg/injection, schedule: Q01DX001 (ip), vehicle: saline with Tween-80
[20] = dose: 25.0 mg/kg/injection, schedule: Q01DX009 (ip), vehicle: saline
[21] = dose: 50.0 mg/kg/injection, schedule: Q04DX003 (ip), vehicle: saline
[22] = dose: 200.0 mg/kg/injection, schedule: Q01DX009 (ip), vehicle: saline
[23] = dose: 100.0 mg/kg/injection, schedule: Q01DX009 (ip), vehicle: saline with Tween-80
[24] = dose: 100.0 mg/kg/injection, schedule: Q04DX003 (ip), vehicle: saline with Tween-80
[25] = dose: 200.0 mg/kg/injection, schedule: Q01DX009 (ip), vehicle: saline with Tween-80
[26] = dose: 200.0 mg/kg/injection, schedule: Q04DX003 (ip), vehicle: saline with Tween-80
[27] = dose: 400.0 mg/kg/injection, schedule: Q01DX009 (ip), vehicle: saline with Tween-80
[28] = dose: 400.0 mg/kg/injection, schedule: Q04DX003 (ip), vehicle: saline with Tween-80

Measured: T/C

CCCCCCCC(=O)N1CCCC(C)C1 (stereo unspecified)
inactive: [1] 96 % of control | dose: 200.0 mg/kg/injection, schedule: Q04DX002 (ip), vehicle: saline 114 % of control | dose: 400.0 mg/kg/injection, schedule: Q04DX002 (ip), vehicle: saline 114 % of control

O=C(O)CNCc1cccc(Cl)c1
inactive: [2] 94 % of control | [3] 101 % of control | [4] 95 % of control | [5] 93 % of control | [6] 101 % of control | [7] 102 % of control

O=C(/C(=N/OCc1ccccc1)c1ccccc1)c1ccccc1
inactive: [8] 102 % of control | [9] 102 % of control | [10] 98 % of control

Clc1ccc(CSSCc2ccc(Cl)cc2)cc1
inactive: [11] 95 % of control | [12] 110 % of control | [13] 100 % of control

CC(=O)OC1C=CN(C(C)=O)C(SC(C)(C)C)C1OC(C)=O (stereo unspecified)
inactive: [14] 101 % of control | [15] 106 % of control | [16] 100 % of control

CC1=C2CC3CCC(C)C2(CC1)C3(C)C (stereo unspecified)
inactive: [3] 88 % of control | [6] 87 % of control

CCOCCOCCC(=O)OC
inactive: dose: 62.5 mg/kg/injection, schedule: Q01DX001 (ip), vehicle: Klucel (hydroxypropylcellulose) (HPC) 95 % of control | dose: 125.0 mg/kg/injection, schedule: Q01DX001 (ip), vehicle: Klucel (hydroxypropylcellulose) (HPC) 89 % of control | dose: 250.0 mg/kg/injection, schedule: Q01DX001 (ip), vehicle: Klucel (hydroxypropylcellulose) (HPC) 113 % of control

O=C(NCCCl)NC(Cc1ccccc1)C(=O)O (stereo unspecified)
inactive: [17] 94 % of control | [18] 94 % of control | [19] 91 % of control

CC#CCOCC1CN(C)C(=O)O1 (stereo unspecified)
inactive: [20] 95 % of control | [2] 98 % of control | [21] 106 % of control | [3] 92 % of control | [4] 101 % of control | [22] 90 % of control | [5] 104 % of control | [6] 95 % of control | [7] 101 % of control

CCOC(=O)c1ccc(NC(=O)Oc2cccc(NC(C)=O)c2)cc1
inactive: [14] 92 % of control | [15] 95 % of control | [16] 92 % of control

S=c1nc[nH]c2nc(N=Nc3cc(Cl)ccc3Cl)[nH]c12
inactive: [8] 101 % of control | [9] 97 % of control

CCOC(=O)c1ccc(N(C=O)CCC(=O)CCl)cc1
inactive: dose: 3.0 mg/kg/injection, schedule: Q01DX009 (ip), vehicle: saline 104 % of control | dose: 5.0 mg/kg/injection, schedule: Q01DX001 (ip), vehicle: saline 95 % of control | dose: 6.0 mg/kg/injection, schedule: Q01DX009 (ip), vehicle: saline 100 % of control | dose: 10.0 mg/kg/injection, schedule: Q01DX001 (ip), vehicle: saline 102 % of control | dose: 12.0 mg/kg/injection, schedule: Q01DX009 (ip), vehicle: saline 94 % of control | dose: 12.5 mg/kg/injection, schedule: Q01DX009 (ip), vehicle: carboxymethylcellulose (CMC) 107 % of control | dose: 20.0 mg/kg/injection, schedule: Q01DX001 (ip), vehicle: saline 104 % of control | dose: 25.0 mg/kg/injection, schedule: Q01DX009 (ip), vehicle: carboxymethylcellulose (CMC) 107 % of control | dose: 40.0 mg/kg/injection, schedule: Q01DX001 (ip), vehicle: saline 106 % of control

CN(C)c1ccc(/C=C2\N=C(c3ccc([N+](=O)[O-])cc3)OC2=O)cc1
inactive: [14] 96 % of control | [15] 101 % of control | [16] 93 % of control

O=C(OC(=O)C1CC1)C1CC1
inactive: dose: 12.5 mg/kg/injection, schedule: Q01DX009 (ip), vehicle: saline 96 % of control | [20] 92 % of control | dose: 25.0 mg/kg/injection, schedule: Q04DX003 (ip), vehicle: saline 90 % of control | [2] 96 % of control and 111 % of control | [21] 88 % of control | [4] 96 % of control and 101 % of control

Cc1ccc(S(=O)(=O)OCC2C(COS(=O)(=O)c3ccc(C)cc3)C3C=CC2C32CC2)cc1 (stereo unspecified)
inactive: [11] 105 % of control | [12] 110 % of control | [13] 102 % of control

COC(=O)CC(OC)OC
inactive: [23] 107 % of control | [3] 103 % of control | [24] 89 % of control | [25] 100 % of control | [22] 103 % of control | [26] 102 % of control | [27] 97 % of control | [6] 105 % of control | [28] 101 % of control

O=c1[nH]nc(SCc2ccccc2)c(=O)[nH]1
inactive: [8] 108 % of control | [9] 92 % of control | [10] 109 % of control

NC(=S)N/N=C(/c1cccs1)C1CC1
inactive: dose: 4.0 mg/kg/injection, schedule: Q01DX Z (ip), vehicle: carboxymethylcellulose (CMC) 116 % of control | dose: 4.0 mg/kg/injection, schedule: Q01DX Z (oral), vehicle: carboxymethylcellulose (CMC) 97 % of control | dose: 8.0 mg/kg/injection, schedule: Q01DX Z (ip), vehicle: carboxymethylcellulose (CMC) 107 % of control | dose: 8.0 mg/kg/injection, schedule: Q01DX Z (oral), vehicle: carboxymethylcellulose (CMC) 115 % of control | dose: 16.0 mg/kg/injection, schedule: Q01DX Z (oral), vehicle: carboxymethylcellulose (CMC) 107 % of control

CCOC(=O)c1c[nH]c(=O)n(-c2ccccc2)c1=O
inactive: dose: 100.0 mg/kg/injection, schedule: Q04DX003 (ip), vehicle: Klucel (hydroxypropylcellulose) (HPC) 109 % of control | dose: 200.0 mg/kg/injection, schedule: Q04DX003 (ip), vehicle: Klucel (hydroxypropylcellulose) (HPC) 92 % of control | dose: 400.0 mg/kg/injection, schedule: Q04DX003 (ip), vehicle: Klucel (hydroxypropylcellulose) (HPC) 106 % of control

CNC(=O)/C(=C\c1ccccc1)NC(C)=O
inactive: [17] 91 % of control | [18] 107 % of control | [19] 100 % of control

O=c1c(-c2ccccc2)c(S)sc(S)c1-c1ccccc1
inactive: dose: 100.0 mg/kg/injection, schedule: Q04DX002 (ip), vehicle: gum acacia 93 % of control | dose: 200.0 mg/kg/injection, schedule: Q04DX002 (ip), vehicle: gum acacia 104 % of control | dose: 400.0 mg/kg/injection, schedule: Q04DX002 (ip), vehicle: gum acacia 93 % of control

CC(C)c1ccc(C(=O)Nc2ccc(OCCCc3c(N)nc(N)nc3N)cc2)cc1S(=O)(=O)F
inactive: dose: 100.0 mg/kg/injection, schedule: Q01DX001 (ip), vehicle: Klucel (hydroxypropylcellulose) (HPC) 93 % of control | dose: 200.0 mg/kg/injection, schedule: Q01DX001 (ip), vehicle: Klucel (hydroxypropylcellulose) (HPC) 98 % of control | dose: 400.0 mg/kg/injection, schedule: Q01DX001 (ip), vehicle: Klucel (hydroxypropylcellulose) (HPC) 96 % of control

Nc1nc(SCc2ccccc2Cl)cc(C(=O)O)n1
inactive: dose: 50.0 mg/kg/injection, schedule: Q01DX Z (ip), vehicle: methylcellulose (MC) 102 % of control

CC(=O)Nc1ccc(SC(=O)c2ccc(C(Cl)(Cl)Cl)cc2)cc1
inactive: [24] 101 % of control | [26] 98 % of control | [28] 93 % of control

NC(=O)NNC(=O)C(Cl)(Cl)Cl
inactive: dose: 25.0 mg/kg/injection, schedule: Q04DX002 (ip), vehicle: saline 108 % of control | dose: 50.0 mg/kg/injection, schedule: Q04DX002 (ip), vehicle: saline 99 % of control | [1] 101 % of control

COc1ccc2c(c1)CCC1=C2CCC(C)(C(=O)O)N1 (stereo unspecified)
inactive: [23] 98 % of control | [25] 95 % of control | [27] 87 % of control

CC(C)(Oc1ccc(Cl)cc1Cl)C(=O)O
inactive: dose: 100.0 mg/kg/injection, schedule: Q01DX009 (ip), vehicle: gum acacia 90 % of control
